# Assays:
# Type in all cases: in vivo, human
# brain metastases [1] = assay: Radiographic response of brain metastases (contrast enhanced MRI or CT, blinded central review)
# Description: Radiographic progression is defined by radiographic criteria only, based on a blinded central review. Determination of radiographic tumor progression in the brain was based on contrast enhanced MRI or CT scans taken at screening and compared to follow-up scans taken 1 month after the end of WBRT, 3 months after the end of WBRT, and every 3 months thereafter until death. Maximum bi-dimensional measurements (x=transverse, y=antero-posterior) were used to compute the bi-dimensional product and for determination of response and radiographic progression. Time to radiographic tumor progression in the brain was reported by means of Kaplan-Meier estimates. Gray's test (Gray R. A class of K-sample tests for comparing the cumulative incidence of a competing risk. Annals of Statistics […];16:1141-1154) was used to compare cumulative incidence between treatment and control groups. Potential competing risks for radiographic progression in the brain included death without progression and loss to follow-up. The date of tumor progression is defined as the date of radiographic documentation that any treated lesion in the brain is enlarged by more than 25% in the bi-dimensional product. The reference to “any treated lesion” mans that the lesion was present prior to RT.
# [2] = Treatment-emergent adverse events in the controlled study
# Experimental: Patients with brain metastases were administered efaproxiral sodium in a total dose of 0-100 mg/kg per day based on the dosing guidelines detailed above. In general, efaproxiral sodium is administered by intravenous infusion through a central venous access device over 30 minutes at a dose of 75 or 100 mg/kg daily with concurrent supplemental oxygen. Oxygen must be administered at 4 L/min via nasal cannula or facemask beginning 5 minutes prior to initiation of infusion, during infusion and WBRT, and for at least 15 minutes after completion of daily WBRT. Efaproxiral sodium is administered every day of a fractionated course of WBRT. Except when contraindicated, WBRT must be administered within 30 minutes of the end of the efaproxiral sodium infusion.
# The patients were given the drug in one dose. Efaproxiral sodium was administered via central venous access with flow rate controlled by volumetric pump over a 30-45 minute interval with end-infusion no longer than 30 minutes prior to each radiation dose of a 10-day course of WBRT. Efaproxiral sodium was formulated as a sterile solution for injection and was supplied in single-use glass bottles containing 10 g efaproxiral sodium in 500 mL of 0.225% NaCl at a concentration of 20 mg/mL. Efaproxiral sodium was administered during the 10-day course of WBRT, for a maximum of 10 doses. A control group received radiation and supplemental oxygen only.
# The majority of treatment-emergent adverse events were Grade 1 or 2 in severity, resolved spontaneously or within the duration of the study, and responded well to concomitant treatment with antiemetics for nausea/vomiting, nonsteroidal anti-inflammatory drugs for headache, supplemental oxygen for hypoxemia. […] Muscle weakness and dyspnea (reported in 3% of patients ) were the most commonly reported Grade 3 adverse events in Control patients and both events were reported as a Grade 4 event in 1 patient each. The most commonly reported Grade 4 adverse event in both treatment and control groups was disease progression (reported in 6% of both groups).
# brain metastases [3] = assay: Survival of patients with brain metastases given efaproxiral sodium + WBRT + supplemental oxygen (controlled study RT-009)
# Experimental: Patients with brain metastases were administered efaproxiral sodium in a total dose of 0-100 mg/kg per day based on the dosing guidelines detailed above. In general, efaproxiral sodium is administered by intravenous infusion through a central venous access device over 30 minutes at a dose of 75 or 100 mg/kg daily with concurrent supplemental oxygen. Oxygen must be administered at 4 L/min via nasal cannula or facemask beginning 5 minutes prior to initiation of infusion, during infusion and WBRT, and for at least 15 minutes after completion of daily WBRT. Efaproxiral sodium is administered every day of a fractionated course of WBRT. Except when contraindicated, WBRT must be administered within 30 minutes of the end of the efaproxiral sodium infusion. The patients were given the drug in one dose. Efaproxiral sodium was administered via central venous access with flow rate controlled by volumetric pump over a 30-45 minute interval with end-infusion no longer than 30 minutes prior to each radiation dose of a 10-day course of WBRT. Efaproxiral sodium was formulated as a sterile solution for injection and was supplied in single-use glass bottles containing 10 g efaproxiral sodium in 500 mL of 0.225% NaCl at a concentration of 20 mg/mL. Efaproxiral sodium was administered during the 10-day course of WBRT, for a maximum of 10 doses. A control group received radiation and supplemental oxygen only. Supplemental oxygen is administered at about 4 L/min via nasal cannula beginning about 5 minutes prior to initiation of infusion, during infusion and WBRT, and for at least about 15 minutes after completion of daily WBRT. If the desired SpO2 of greater than or equal to 90% while breathing room air is not achieved, supplemental oxygen is to be continued and increased to a flow of 6-8 L/min, if necessary, until the SpO2 while breathing room air is stabilized at greater than or equal to 90%. Plasma and red blood cell (RBC) drug concentration were assayed on 2 days during the course of efaproxiral sodium administration: WBRT day 1 (end-infusion) and on 1 single day between WBRT days 6 and 10 (pre-infusion and end-infusion assays). Regression analysis was used to explore the relationship between trough and peak concentrations and continuous clinical covariates (eg, age, serum albumin, hematocrit, serum creatinine, etc). […] A dose of efaproxiral sodium was considered predicatably therapeutic if it achieved a sufficient, RBC concentration (>483 μg/ml), and corresponded to a predicted p50 shift of 10 mmHg. One measurement of efficacy is the survival in the total patient population. For eligible patients, the observed mean survival time for the control group was 4.37 months as compared to 5.39 months for the efaproxiral sodium treated group.
# [4] = Quality of life: Spitzer Questionnaire (SQ); conditions: all randomized patients, N = 271
# Experimental: (§1) Quality of life was determined by means of the Spitzer Questionnaire (SQ) and Kamofsky Performance Status (KPS) assessment. The tests were performed at baseline, at WBRT day 10, and at all routine follow-up visits. A sustained drop in the KPS score to less than 60 was defined as a significant drop. The 5 questions comprising the Spitzer Questionnaire were weighted evenly. For each evaluation with at least 3 out of 5 questions answered, an average score was computed for each patient. Questionnaires with fewer than 3 questions answered were treated as missing data. The protocol specified a sustained drop in the Spitzer Questionnaire score of 2 points constituted a significant drop.
# [5] = Resaturation time / supplemental oxygen requirement after efaproxiral sodium plus WBRT; conditions: majority of doses; patients with brain metastases from breast cancer
# Experimental: Depending upon an individual patient's resaturation time (time required to recover to a stable≧90% SpO2 on room air) following efaproxiral sodium plus WBRT, supplemental oxygen use may be required for as little as 30 minutes to more than 4 hours. […] During this period of decreased oxygen saturation, patients require continuous SpO2 monitoring. If the desired SpO2 of≧90% while breathing room air is not achieved, supplemental oxygen is to be continued and increased to a flow of 6-8 L/min, if necessary, until the SpO2 while breathing room air is stabilized at≧90%.
# [6] = Quality of life: Karnofsky Performance Status (KPS); conditions: for patients with stable or improving KPS scores: all randomized patients, N = 271
# Experimental: as §1
# [7] = Plasma and red blood cell (RBC) drug concentration during efaproxiral sodium administration
# Experimental: Plasma and red blood cell (RBC) drug concentration were assayed on 2 days during the course of efaproxiral sodium administration: WBRT day 1 (end-infusion) and on 1 single day between WBRT days 6 and 10 (pre-infusion and end-infusion assays). Regression analysis was used to explore the relationship between trough and peak concentrations and continuous clinical covariates (eg, age, serum albumin, hematocrit, serum creatinine, etc). […] A dose of efaproxiral sodium was considered predicatably therapeutic if it achieved a sufficient, RBC concentration (>483 μg/ml), and corresponded to a predicted p50 shift of 10 mmHg.
compound,measurement,setting,value
"Cc1cc(C)cc(NC(=O)Cc2ccc(OC(C)(C)C(=O)O)cc2)c1 [efaproxiral sodium, 2-[4-(((3,5-dimethylanilino)carbonyl)methyl)phenoxy]-2-methylpropionic acid]",estimated increase in radiographic response rate compared to Control,"brain metastases [1]; all randomized patients, 95% CI −0.4%-16.3%, p=0.0609",7.9%
same,treatment effect for predicting response (logistic multiple regression),"brain metastases [1]; breast primary patients, p=0.0209",statistically significant
same,severity of the majority of treatment-emergent adverse events,[2]; controlled study,Grade 1 or 2
same,Grade 4 hypoxemia,[2]; efaproxiral sodium-treated patients,no Grade 4 hypoxemia was reported
same,"Grade 3 hypoxemia, patients reporting","[2]; efaproxiral sodium-treated patients, most commonly reported Grade 3 adverse event",11%
same,"Grade 4 disease progression, patients reporting","[2]; most commonly reported Grade 4 adverse event, same in control group",6%
same,MST (median survival time),"brain metastases [3]; All patients, <7 efaproxiral sodium doses",2.96 (53)
same,MST (median survival time),"brain metastases [3]; All patients, ≧7 efaproxiral sodium doses, <7 successful (RBC >483 μg/ml)",4.93 (118)
same,MST (median survival time),"brain metastases [3]; All patients, ≧7 efaproxiral sodium doses, ≧7 successful (RBC >483 μg/ml), p 0.001 vs Control",6.90 (100) 0.001
same,MST (median survival time),"brain metastases [3]; Breast patients, <7 efaproxiral sodium doses",3.52 (13)
same,MST (median survival time),"brain metastases [3]; Breast patients, ≧7 efaproxiral sodium doses, <7 successful",7.33 (22)
same,MST (median survival time),"brain metastases [3]; Breast patients, ≧7 efaproxiral sodium doses, ≧7 successful, p 0.0002 vs Control",25.72 (25) 0.0002
same,MST (median survival time),"brain metastases [3]; NSCLC patients, <7 efaproxiral sodium doses",2.71 (30)
same,MST (median survival time),"brain metastases [3]; NSCLC patients, ≧7 efaproxiral sodium doses, <7 successful",4.73 (65)
same,MST (median survival time),"brain metastases [3]; NSCLC patients, ≧7 efaproxiral sodium doses, ≧7 successful, p 0.0011 vs Control",6.83 (53) 0.0011
same,observed mean survival time,"brain metastases [3]; eligible patients, control group 4.37 months",5.39 months
same,"HR, survival distribution function, treatment versus control","brain metastases [3]; patients with breast as site of primary, p=0.0061",0.552
same,patients with stable or improving SQ scores,[4]; 1 month,115 (42) n (%)
same,patients with stable or improving SQ scores,[4]; 3 months,62 (23) n (%)
same,patients with stable or improving SQ scores,[4]; 6 months,43 (16) n (%)
same,patients with stable or improving SQ scores,[4]; 12 months,24 (9) n (%)
same,supplemental oxygen required after completion of WBRT,[5],one
same,patients with stable or improving KPS scores,[6]; 1 month,119 (44) n (%)
same,patients with stable or improving KPS scores,[6]; 3 months,64 (24) n (%)
same,patients with stable or improving KPS scores,[6]; 6 months,49 (18) n (%)
same,patients with stable or improving KPS scores,[6]; 12 months,19 (7) n (%)
same,distribution of KPS score categories between treatment groups,"[6]; breast primary patients, 6 months and 1 year (p=0.0046 and p=0.0070)",statistically significant difference
same,drug accumulation,[7]; WBRT week 2 preinfusion concentrations in RBCs,No clinically relevant drug accumulation occurred
same,predicted p50 shift,[7]; at RBC concentration >483 μg/ml,10 mmHg
same,change of concentration in RBCs with dose,[7]; patients dosed at 75 or 100 mg/kg,proportional increase

# Source: patent publication US20050238727A1, “Coadministration of radiation, efaproxiral sodium, and supplemental oxygen for the treatment of cancer” (priority 2004, published 2005)
